Test results reported in US12071425B2 (Genentech, Inc., priority 2018, dated 2024).

Molecular target: kinase domain of IRE1 alpha (His-tagged kinase dead construct KR, AA G547-L977, D688N) (Homo sapiens (Human), UniProt O75460, D688N)
Test: IRE1α TR-FRET competition binding assay
Settings: competition with Kinase Tracer 236, 0.1 μM; one hour at room temperature
How it was run: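 Compound displacement of an ATP-site fluorescent tracer (0.1 μM final) measured by TR-FRET after 1 h at room temperature. Protein, a His-tagged D688N kinase/RNase construct from Sf9 cells (0.006 μM final), was pre-bound 1 h at 4° C to Eu anti-His antibody (0.002 μM) in pH 7.5 HEPES buffer.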

Sequence of kinase domain of IRE1 alpha (His-tagged kinase dead construct KR, AA G547-L977, D688N) (O75460 547-977 D688N): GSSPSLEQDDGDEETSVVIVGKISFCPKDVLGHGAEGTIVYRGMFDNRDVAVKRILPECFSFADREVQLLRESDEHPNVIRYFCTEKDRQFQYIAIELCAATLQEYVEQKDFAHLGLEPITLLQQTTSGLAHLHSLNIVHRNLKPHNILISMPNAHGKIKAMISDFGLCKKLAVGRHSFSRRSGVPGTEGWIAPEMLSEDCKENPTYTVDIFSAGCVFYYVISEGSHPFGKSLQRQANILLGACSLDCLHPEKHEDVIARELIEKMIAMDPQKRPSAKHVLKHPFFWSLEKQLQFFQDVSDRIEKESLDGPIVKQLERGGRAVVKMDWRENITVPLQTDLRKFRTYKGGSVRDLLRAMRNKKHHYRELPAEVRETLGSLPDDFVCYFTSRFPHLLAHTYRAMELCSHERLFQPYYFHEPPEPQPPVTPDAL

Structure (SMILES) | IC50 [nM]
O=S(=O)(Nc1c(F)cc(Oc2ncccc2-c2ccnc(N[C@@H]3CNC[C@@H](F)C3)n2)c(F)c1F)C1CCCCC1 [Compound 368, N-(2,3,6-Trifluoro-4-((3-(2-(((3S,5S)-5-fluoropiperidin-3-yl)amino)pyrimidin-4-yl)pyridin-2-yl)oxy)phenyl)cyclohexanesulfonamide] | 0.2
O=S(=O)(Nc1c(F)cc(Oc2ncccc2-c2ccnc(N[C@@H]3CNC[C@@H](F)C3)n2)c(F)c1F)C1CCCC1 [Compound 369, N-(2,3,6-Trifluoro-4-((3-(2-(((3S,5S)-5-fluoropiperidin-3-yl)amino)pyrimidin-4-yl)pyridin-2-yl)oxy)phenyl)cyclopentanesulfonamide] | 1.2
O=S(=O)(Cc1ccc(C(F)(F)F)cc1)Nc1c(F)cc(Oc2ncccc2-c2ccnc(N[C@@H]3CNC[C@@H](F)C3)n2)c(F)c1F [Compound 370, N-(2,3,6-Trifluoro-4-((3-(2-(((3S,5S)-5-fluoropiperidin-3-yl)amino)pyrimidin-4-yl)pyridin-2-yl)oxy)phenyl)-1-(4-(trifluoromethyl)phenyl)methanesulfonamide] | 2
O=S(=O)(CC12CCC(CC1)C2)Nc1c(F)cc(Oc2ncccc2-c2ccnc(N[C@@H]3CNC[C@@H](F)C3)n2)c(F)c1F [Compound 376, 1-(Bicyclo[2.2.1]heptan-1-yl)N-(2,3,6-trifluoro-4-((3-(2-(((3S,5S)-5-fluoropiperidin-3-yl)amino)pyrimidin-4-yl)pyridin-2-yl)oxy)phenyl)methanesulfonamide] | 0.2
O=S(=O)(CC12CCC(CC1)CC2)Nc1c(F)cc(Oc2ncccc2-c2ccnc(N[C@@H]3CNC[C@@H](F)C3)n2)c(F)c1F [Compound 377, 1-(Bicyclo[2.2.2]octan-1-yl)-N-(2,3,6-trifluoro-4-((3-(2-(((3S,5S)-5-fluoropiperidin-3-yl)amino)pyrimidin-4-yl)pyridin-2-yl)oxy)phenyl)methanesulfonamide] | 0.8
CC(c1ccc(C#N)cc1)S(=O)(=O)Nc1ccc(Oc2ncccc2-c2ccnc(N[C@H]3CCCNC3)n2)c(F)c1F (stereo partly drawn) [Compound 379, 1-(4-Cyanophenyl)-N-(2,3-difluoro-4-((3-(2-(((S)-piperidin-3-yl)amino)pyrimidin-4-yl)pyridin-2-yl)oxy)phenyl)ethane-1-sulfonamide] | 0.3
COc1ccccc1CS(=O)(=O)Nc1ccc(Oc2ncccc2-c2ccnc(N[C@H]3CCCNC3)n2)c(F)c1F [Compound 380, (S)—N-(2,3-Difluoro-4-((3-(2-(piperidin-3-ylamino)pyrimidin-4-yl)pyridin-2-yl)oxy)phenyl)-1-(2-methoxyphenyl)methanesulfonamide] | 0.9
O=S(=O)(Nc1ccc(Oc2ncccc2-c2ccnc(N[C@H]3CCCNC3)n2)c(F)c1F)C1c2ccccc2-c2ccccc21 [Compound 381, (S)—N-(2,3-Difluoro-4-((3-(2-(piperidin-3-ylamino)pyrimidin-4-yl)pyridin-2-yl)oxy)phenyl)-9H-fluorene-9-sulfonamide] | 1

The next lines start with the values.

IC50 [nM] | Structure (SMILES)
0.2 | O=S(=O)(Cc1ccc(F)c(Cl)c1)Nc1c(F)cc(Oc2ncccc2-c2ccnc(N[C@@H]3CNC[C@@H](F)C3)n2)c(F)c1F [Compound 366, 1-(3-Chloro-4-fluoro-phenyl)-N-[2,3,6-trifluoro-4-[[3-[2-[[(3S,5S)-5-fluoro-3-piperidyl]amino]pyrimidin-4-yl]-2-pyridyl]oxy]phenyl]methanesulfonamide]
0.2 | O=S(=O)(Cc1c(F)cccc1Cl)Nc1c(F)cc(Oc2ncccc2-c2ccnc(N[C@@H]3CNC[C@@H](F)C3)n2)c(F)c1F [Compound 367, 1-(2-Chloro-6-fluorophenyl)-N-(2,3,6-trifluoro-4-((3-(2-(((3S,5S)-5-fluoropiperidin-3-yl)amino)pyrimidin-4-yl)pyridin-2-yl)oxy)phenyl)methanesulfonamide]
0.3 | O=S(=O)(Cc1ccc(C(F)F)cc1)Nc1c(F)cc(Oc2ncccc2-c2ccnc(N[C@@H]3CNC[C@@H](F)C3)n2)c(F)c1F [Compound 371, 1-(4-(Difluoromethyl)phenyl)-N-(2,3,6-trifluoro-4-((3-(2-(((3S,5S)-5-fluoropiperidin-3-yl)amino)pyrimidin-4-yl)pyridin-2-yl)oxy)phenyl)methanesulfonamide]
0.2 | O=S(=O)(Cc1ccc(F)cc1)Nc1c(F)cc(Oc2ncccc2-c2ccnc(N[C@@H]3CNC[C@@H](F)C3)n2)c(F)c1F [Compound 372, 1-(4-Fluorophenyl)-N-(2,3,6-trifluoro-4-((3-(2-(((3S,5S)-5-fluoropiperidin-3-yl)amino)pyrimidin-4-yl)pyridin-2-yl)oxy)phenyl)methanesulfonamide]
0.3 | O=S(=O)(Cc1ccccc1C(F)(F)F)Nc1c(F)cc(Oc2ncccc2-c2ccnc(N[C@@H]3CNC[C@@H](F)C3)n2)c(F)c1F [Compound 373, N-(2,3,6-Trifluoro-4-((3-(2-(((3S,5S)-5-fluoropiperidin-3-yl)amino)pyrimidin-4-yl)pyridin-2-yl)oxy)phenyl)-1-(2-(trifluoromethyl)phenyl)methanesulfonamide]
0.2 | O=S(=O)(Cc1cccc(C(F)(F)F)c1)Nc1c(F)cc(Oc2ncccc2-c2ccnc(N[C@@H]3CNC[C@@H](F)C3)n2)c(F)c1F [Compound 374, N-(2,3,6-Trifluoro-4-((3-(2-(((3S,5S)-5-fluoropiperidin-3-yl)amino)pyrimidin-4-yl)pyridin-2-yl)oxy)phenyl)-1-(3-(trifluoromethyl)phenyl)methanesulfonamide]
0.4 | Cc1ccc(CS(=O)(=O)Nc2c(F)cc(Oc3ncccc3-c3ccnc(N[C@@H]4CNC[C@@H](F)C4)n3)c(F)c2F)cc1 [Compound 375, 1-p-Tolyl-N-(2,3,6-trifluoro-4-((3-(2-(((3S,5S)-5-fluoropiperidin-3-yl)amino)pyrimidin-4-yl)pyridin-2-yl)oxy)phenyl)methanesulfonamide]
1.1 | O=S(=O)(Cc1cc(F)ccc1F)Nc1c(F)cc(Oc2ncccc2-c2ccnc(N[C@@H]3CNC[C@@H](F)C3)n2)c(F)c1F [Compound 378, 1-(2,5-Difluorophenyl)-N-(2,3,6-trifluoro-4-((3-(2-(((3S,5S)-5-fluoropiperidin-3-yl)amino)pyrimidin-4-yl)pyridin-2-yl)oxy)phenyl)methanesulfonamide]
0.7 | Cc1cccc(CS(=O)(=O)Nc2c(F)cc(Oc3ncccc3-c3ccnc(N[C@@H]4CNC[C@@H](F)C4)n3)c(F)c2F)c1 [Compound 383, 1-m-Tolyl-N-(2,3,6-trifluoro-4-((3-(2-(((3S,5S)-5-fluoropiperidin-3-yl)amino)pyrimidin-4-yl)pyridin-2-yl)oxy)phenyl)methanesulfonamide]
0.3 | Cc1ccc(CS(=O)(=O)Nc2c(F)cc(Oc3ncccc3-c3ccnc(N[C@@H]4CNC[C@@H](F)C4)n3)c(F)c2F)c(F)c1 [Compound 384, 1-(2-Fluoro-4-methylphenyl)-N-(2,3,6-trifluoro-4-((3-(2-(((3S,5S)-5-fluoropiperidin-3-yl)amino)pyrimidin-4-yl)pyridin-2-yl)oxy)phenyl)methanesulfonamide]
0.2 | COc1cccc(CS(=O)(=O)Nc2c(F)cc(Oc3ncccc3-c3ccnc(N[C@@H]4CNC[C@@H](F)C4)n3)c(F)c2F)c1 [Compound 385, 1-(3-Methoxyphenyl)-N-(2,3,6-trifluoro-4-((3-(2-(((3S,5S)-5-fluoropiperidin-3-yl)amino)pyrimidin-4-yl)pyridin-2-yl)oxy)phenyl)methanesulfonamide]
0.3 | Cc1ccccc1CS(=O)(=O)Nc1c(F)cc(Oc2ncccc2-c2ccnc(N[C@@H]3CNC[C@@H](F)C3)n2)c(F)c1F [Compound 386, 1-o-Tolyl-N-(2,3,6-trifluoro-4-((3-(2-(((3S,5S)-5-fluoropiperidin-3-yl)amino)pyrimidin-4-yl)pyridin-2-yl)oxy)phenyl)methanesulfonamide]
0.3 | O=S(=O)(Cc1cccnc1C(F)(F)F)Nc1c(F)cc(Oc2ncccc2-c2ccnc(N[C@@H]3CNC[C@@H](F)C3)n2)c(F)c1F [Compound 389, N-(2,3,6-Trifluoro-4-((3-(2-(((3S,5S)-5-fluoropiperidin-3-yl)amino)pyrimidin-4-yl)pyridin-2-yl)oxy)phenyl)-1-(2-(trifluoromethyl)pyridin-3-yl)methanesulfonamide]

Tested on: cells
Test: not given
Settings: high levels of 4μ8C; cited from earlier work

Structure (SMILES) | toxicity in cells
Cc1cc(=O)oc2c(C=O)c(O)ccc12 [Compound 4μ8C] | no measurable toxicity
